According to US20090258069A1, “Delivery of LFA-1 antagonists to the gastrointestinal system” (priority 2008, published 2009):

System: tester strains
Assay: In vitro Ames bacterial reverse mutation assay
Assay type: cell-based
Details: presence or absence of microsomal (S9) enzymes
Excerpt: Therefore, Compound 12 was judged to be not mutagenic.

Q: Which “Ames assay, revertants per plate” value does the source give for `CS(=O)(=O)c1cccc(C[C@H](NC(=O)c2c(Cl)cc3c(c2Cl)CCN(C(=O)c2ccc4ccoc4c2)C3)C(=O)O)c1` [Compound 12] here?
A: not mutagenic
